From ChEMBL document CHEMBL4627403, “Development of Selective Steroid Inhibitors for the Glucose-6-phosphate Dehydrogenase from Trypanosoma cruzi” (ACS Med Chem Lett, 2020)
Active and inactive are the calls of the source. The rule behind the calls is not given here.

Key:
[1] = target: T1, Glucose-6-phosphate 1-dehydrogenase (Homo sapiens, UniProt P11413); test: Inhibition of recombinant human G6PDH expressed in Escherichia coli by fluorescence assay
Trypanosoma cruzi [2] = test: Antitrypanosomal activity against Trypanosoma cruzi Y amastigotes infected in rat H9C2 cells assessed as reduction in parasite infection at 20 uM after 72 hrs by Hoechst 33342 staining based fluorescence microscopy; format: functional, organism-based
H9c2 [3] = test: Cytotoxicity against rat H9c2 cells at 20 uM after 72 hrs by Hoechst 33342 staining based fluorescence microscopy; format: cell-based; details: h9c2, 72 h
Trypanosoma cruzi [4] = test: Antitrypanosomal activity against Trypanosoma cruzi Y amastigotes infected in rat H9C2 cells after 72 hrs by Hoechst 33342 staining based fluorescence microscopy; format: functional, organism-based; details: H9c2, 72 h
H9c2 [5] = test: Cytotoxicity against rat H9c2 cells after 72 hrs by Hoechst 33342 staining based fluorescence microscopy; format: cell-based; details: H9c2, 72 h
[6] = Selectivity index, ratio of EC50 for cytotoxicity against rat H9C2 cells to EC50 for antitrypanosomal activity against Trypanosoma cruzi Y amastigotes infected in rat H9C2 cells; format: toxicity, cell-based; details: read-out: Ratio EC50
[7] = Selectivity index, ratio of IC50 for human G6PDH to IC50 for Trypanosoma cruzi G6PDH
Trypanosoma cruzi [8] = test: Antitrypanosomal activity against Trypanosoma cruzi Y amastigotes infected in rat H9C2 rat cells assessed as reduction in number of infected cells at 10 uM after 72 hrs by Hoechst 33342 staining based fluorescence microscopy; format: functional, organism-based
[9] = Inhibition of recombinant Trypanosoma cruzi G6PDH expressed in Escherichia coli by fluorescence assay
[10] = target: T1, Glucose-6-phosphate 1-dehydrogenase; test: Inhibition of recombinant human G6PDH expressed in Escherichia coli at 80 uM by fluorescence assay

T1 sequence (P11413 whole entry): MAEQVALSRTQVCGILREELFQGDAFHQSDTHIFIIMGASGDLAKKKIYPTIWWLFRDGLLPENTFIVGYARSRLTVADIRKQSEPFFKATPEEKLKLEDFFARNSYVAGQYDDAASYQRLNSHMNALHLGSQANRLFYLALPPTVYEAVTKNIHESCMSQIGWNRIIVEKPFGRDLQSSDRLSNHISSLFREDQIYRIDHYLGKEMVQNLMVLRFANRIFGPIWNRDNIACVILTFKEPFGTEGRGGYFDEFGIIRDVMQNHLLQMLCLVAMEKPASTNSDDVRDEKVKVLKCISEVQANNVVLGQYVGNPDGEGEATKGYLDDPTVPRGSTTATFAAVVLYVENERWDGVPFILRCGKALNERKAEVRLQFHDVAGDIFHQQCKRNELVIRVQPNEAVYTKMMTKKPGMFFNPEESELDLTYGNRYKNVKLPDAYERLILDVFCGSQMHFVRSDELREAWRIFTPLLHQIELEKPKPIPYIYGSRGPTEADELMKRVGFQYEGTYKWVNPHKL

Structure (SMILES)	Activity (Trypanosoma cruzi [2])	Activity (H9c2 [3])	EC50 (H9c2 [5]) [µM]	IC50 [9] [µM]	also measured
C[C@]12CC[C@H](OC[C@H](O)CN3CCOCC3)C[C@@H]1CC[C@@H]1[C@@H]2CC[C@]2(C)C(=O)CC[C@@H]12	–	–	–	–	IC50 [1]: > 40 µM
C[C@]12CC[C@H](O)C[C@@H]1CC[C@@H]1[C@@H]2CC[C@]2(C)C(=O)[C@H](Br)C[C@@H]12 [16.ALPHA.-BROMOEPIANDROSTERONE]	Active	Toxic	13	–	EC50 (Trypanosoma cruzi [4]): 6.4 µM; selectivity ratio [6]: 2; Ratio IC50 [7]: 2
C[C@]12CC[C@H](O)C[C@@H]1CC[C@@H]1[C@@H]2CC[C@]2(C)C(=O)CC[C@@H]12 [EPIANDROSTERONE]	inactive	Non-Toxic	–	–	–
CN1CCN(C[C@@H](O)CO[C@H]2CC[C@@]3(C)[C@@H](CC[C@@H]4[C@@H]3CC[C@]3(C)C(=O)CC[C@@H]43)C2)CC1	–	–	–	–	IC50 [1]: > 40 µM
C[C@]12CC[C@H](OCCS(=O)(=O)N3CCOCC3)C[C@@H]1CC[C@@H]1[C@@H]2CC[C@]2(C)C(=O)[C@H](Br)C[C@@H]12	Active	Toxic	8.5	–	EC50 (Trypanosoma cruzi [4]): 2.4 µM; selectivity ratio [6]: 3.5; Activity (Trypanosoma cruzi [8]): Active; Ratio IC50 [7]: 5 to 10
CO[C@H]1CC[C@@]2(C)[C@@H](CC[C@@H]3[C@@H]2CC[C@]2(C)C(=O)CC[C@@H]32)C1	inactive	Non-Toxic	–	–	–
CN1CCN(C[C@H](O)CO[C@H]2CC[C@@]3(C)[C@@H](CC[C@@H]4[C@@H]3CC[C@]3(C)C(=O)CC[C@@H]43)C2)CC1	–	–	–	–	IC50 [1]: > 40 µM
CN1CCN(CCS(=O)(=O)O[C@H]2CC[C@@]3(C)[C@@H](CC[C@@H]4[C@@H]3CC[C@]3(C)C(=O)CC[C@@H]43)C2)CC1	inactive	Non-Toxic	–	5	–
C[C@]12CCCC[C@@H]1CC[C@@H]1[C@@H]2CC[C@]2(C)C(=O)[C@H](Br)C[C@@H]12	Active	Toxic	8.4	–	EC50 (Trypanosoma cruzi [4]): 3.5 µM; selectivity ratio [6]: 2.4
CC(C)C(=O)O[C@H]1CC[C@@]2(C)[C@@H](CC[C@@H]3[C@@H]2CC[C@]2(C)C(=O)CC[C@@H]32)C1	inactive	Non-Toxic	–	> 3	–
C[C@]12CC[C@H](OCC(=O)N3CCOCC3)C[C@@H]1CC[C@@H]1[C@@H]2CC[C@]2(C)C(=O)[C@H](Br)C[C@@H]12	Active	Toxic	5.6	–	EC50 (Trypanosoma cruzi [4]): 3.2 µM; selectivity ratio [6]: 1.8; Ratio IC50 [7]: 5 to 10
CN1CCN(CCC(=O)O[C@H]2CC[C@@]3(C)[C@@H](CC[C@@H]4[C@@H]3CC[C@]3(C)C(=O)CC[C@@H]43)C2)CC1	–	–	–	10	–
CC(=O)O[C@H]1CC[C@@]2(C)[C@@H](CC[C@@H]3[C@@H]2CC[C@]2(C)C(=O)[C@H](Br)C[C@@H]32)C1	Active	Toxic	14.7	0.15 to 0.38	EC50 (Trypanosoma cruzi [4]): 8.5 µM; selectivity ratio [6]: 1.7; Ratio IC50 [7]: 160
C[C@]12CC[C@H](OC[C@@H](O)CN3CCOCC3)C[C@@H]1CC[C@@H]1[C@@H]2CC[C@]2(C)C(=O)CC[C@@H]12	–	–	–	–	IC50 [1]: > 40 µM
C[C@]12CC[C@H](OS(C)(=O)=O)C[C@@H]1CC[C@@H]1[C@@H]2CC[C@]2(C)C(=O)CC[C@@H]12	inactive	Non-Toxic	–	–	Ratio IC50 [7]: 2
C[C@]12CC[C@H](OS(=O)(=O)CCN3CCOCC3)C[C@@H]1CC[C@@H]1[C@@H]2CC[C@]2(C)C(=O)CC[C@@H]12	inactive	Non-Toxic	–	5	–
CC(C)C(=O)O[C@H]1CC[C@@]2(C)[C@@H](CC[C@@H]3[C@@H]2CC[C@]2(C)C(=O)[C@H](Br)C[C@@H]32)C1	–	–	–	0.15 to 0.38	Ratio IC50 [7]: > 400; inhibition (INH) [10]: Not Active
C=CCC(=O)O[C@H]1CC[C@@]2(C)[C@@H](CC[C@@H]3[C@@H]2CC[C@]2(C)C(=O)CC[C@@H]32)C1	inactive	Non-Toxic	–	> 3	–
C[C@]12CC[C@H](OCCS(=O)(=O)N3CCOCC3)C[C@@H]1CC[C@@H]1[C@@H]2CC[C@]2(C)C(=O)CC[C@@H]12	–	–	–	20	–
CC(C)CO[C@H]1CC[C@@]2(C)[C@@H](CC[C@@H]3[C@@H]2CC[C@]2(C)C(=O)[C@H](Br)C[C@@H]32)C1	Active	Toxic	12.3	–	EC50 (Trypanosoma cruzi [4]): 4.2 µM; selectivity ratio [6]: 2.9; Activity (Trypanosoma cruzi [8]): Active
CN1CCN(CC(=O)O[C@H]2CC[C@@]3(C)[C@@H](CC[C@@H]4[C@@H]3CC[C@]3(C)C(=O)CC[C@@H]43)C2)CC1	–	–	–	10	–
C[C@]12CC[C@H](OS(C)(=O)=O)C[C@@H]1CC[C@@H]1[C@@H]2CC[C@]2(C)C(=O)[C@H](Br)C[C@@H]12	Active	Toxic	7.5	–	EC50 (Trypanosoma cruzi [4]): 2.4 µM; selectivity ratio [6]: 3.1; Activity (Trypanosoma cruzi [8]): Active; Ratio IC50 [7]: 6
C[C@]12CC[C@H](OC(=O)CCN3CCOCC3)C[C@@H]1CC[C@@H]1[C@@H]2CC[C@]2(C)C(=O)CC[C@@H]12	–	–	–	10	–
C[C@]12CC[C@H](OC(=O)CN3CCOCC3)C[C@@H]1CC[C@@H]1[C@@H]2CC[C@]2(C)C(=O)CC[C@@H]12	–	–	–	10	–
CC(=O)O[C@H]1CC[C@@]2(C)[C@@H](CC[C@@H]3[C@@H]2CC[C@]2(C)C(=O)CC[C@@H]32)C1	inactive	Non-Toxic	–	> 3	–
O=C(Cn1ccnc1[N+](=O)[O-])NCc1ccccc1 [BENZNIDAZOLE]	–	–	> 40	–	Activity (Trypanosoma cruzi [8]): Active
C=CCC(=O)O[C@H]1CC[C@@]2(C)[C@@H](CC[C@@H]3[C@@H]2CC[C@]2(C)C(=O)[C@H](Br)C[C@@H]32)C1	Active	Toxic	54	0.15 to 0.38	EC50 (Trypanosoma cruzi [4]): 16.7 µM; selectivity ratio [6]: 3.2
